Laboratory results taken from ChEMBL document CHEMBL4311992, “Discovery of 3-(((9H-purin-6-yl)amino)methyl)-4,6-dimethylpyridin-2(1H)-one derivatives as novel tubulin polymerization inhibitors for treatment of cancer” (Eur J Med Chem, 2019).

Key:
[1] = biological target: Insulin receptor (Homo sapiens) (UniProt P06213); test: Inhibition of recombinant human activated IR (1005 to 1310 residues) assessed as residual activity at 10 uM using KKKSPGEYVNIEFG as substrate measured after 40 mins in presence of [gamma33P]ATP by scintillation counting method
[2] = biological target: Serine/threonine-protein kinase/endoribonuclease IRE1 (Homo sapiens) (UniProt O75460); test: Inhibition of recombinant human IRE1 (465 to end residues) assessed as residual activity at 10 uM using myelin basic protein as substrate measured after 40 mins in presence of [gamma33P]ATP by scintillation counting method
[3] = biological target: Aurora kinase B (Homo sapiens) (UniProt Q96GD4); test: Inhibition of recombinant full-length human AURKB assessed as residual activity at 10 uM using AKRRRLSSLRA as substrate measured after 40 mins in presence of [gamma33P]ATP by scintillation counting method
[4] = biological target: SRSF protein kinase 2 (Homo sapiens) (UniProt P78362); test: Inhibition of human SRPK2 (46 to end residues) using RSRSRSRSRSRSRSR as substrate measured after 40 mins in presence of [gamma33P]ATP by scintillation counting method; design: scale not given: the % may be the effect or the level left
[5] = biological target: Serine/threonine-protein kinase ULK1 (Homo sapiens) (UniProt O75385); test: Inhibition of human ULK1 (1 to 314 residues) using casein as substrate measured after 40 mins in presence of [gamma33P]ATP by scintillation counting method; design: scale not given: the % may be the effect or the level left
[6] = biological target: Tyrosine-protein kinase Srms (Homo sapiens) (UniProt Q9H3Y6); test: Inhibition of human SRMS assessed as residual activity at 10 uM by radiometric method
[7] = test system: PI3-kinase p110-alpha/p85-alpha (Homo sapiens), P27986+P42336 [E542K]; test: Inhibition of recombinant full-length human PI3K p110alpha/p85alpha E542K mutant assessed as residual activity at 10 uM using phosphatidylinositol-4, 5-bisphosphate as substrate measured after 40 mins by fluorescence assay; type: protein-complex assay
[8] = biological target: Serine/threonine-protein kinase PAK 5 (Homo sapiens) (UniProt Q9P286); test: Inhibition of recombinant human PAK5 (425 to end residues) assessed as residual activity at 10 uM using RRRLSFAEPG as substrate measured after 40 mins in presence of [gamma33P]ATP by scintillation counting method
[9] = biological target: Casein kinase I isoform delta (Homo sapiens) (UniProt P48730); test: Inhibition of recombinant human CK1delta (1 to 294 residues) assessed as residual activity at 10 uM using KRRRALS(p)VASLPGL as substrate measured after 40 mins in presence of [gamma33P]ATP by scintillation counting method
[10] = Toxicity in nude BALB/c mouse assessed as change in WBC level at 40 to 80 mg/kg, po once daily for 4 weeks measured post-last dose; type: organism-based; details: in vivo, 672 h
[11] = Toxicity in nude BALB/c mouse assessed as change in total protein level at 40 to 80 mg/kg, po once daily for 4 weeks measured post-last dose; type: organism-based; details: in vivo, 672 h
[12] = biological target: Mitogen-activated protein kinase 1 (Homo sapiens) (UniProt P28482); test: Inhibition of recombinant full-length human MAPK1 assessed as residual activity at 10 uM using myelin basic protein as substrate measured after 40 mins in presence of [gamma33P]ATP by scintillation counting method
Homo sapiens = species on record: Homo sapiens; test: Inhibition of recombinant full-length human ATRIP/ATR M211T mutant assessed as residual activity at 10 uM using GST-cMyc-p53 as substrate measured after 40 mins by fluorescence assay
[13] = biological target: Serine/threonine-protein kinase tousled-like 1 (Homo sapiens) (UniProt Q9UKI8); test: Inhibition of recombinant full-length human TLK1 assessed as residual activity at 10 uM using casein as substrate measured after 40 mins in presence of [gamma33P]ATP by scintillation counting method
[14] = biological target: Mitogen-activated protein kinase kinase kinase kinase 3 (Homo sapiens) (UniProt Q8IVH8); test: Inhibition of recombinant human MAP4K3 (1 to 291 residues) assessed as residual activity at 10 uM using RLGRDKYKTLRQIRQ as substrate measured after 40 mins in presence of [gamma33P]ATP by scintillation counting method
[15] = biological target: Death-associated protein kinase 2 (Homo sapiens) (UniProt Q9UIK4); test: Inhibition of recombinant full-length human DAPK2 assessed as residual activity at 10 uM using calmodulin as substrate measured after 40 mins in presence of [gamma33P]ATP by scintillation counting method
SW-620 [16] = test: Induction of apoptosis in human SW620 cells assessed as increase in cleaved caspase9 expression measured after 48 hrs by Western blot analysis; type: functional, cell-based
SW-620 [17] = test: Induction of apoptosis in human SW620 cells assessed as early apoptotic cells at 25 nM measured after 48 hrs by Annexin V-FITC/propidium iodide staining-based flow cytometry (reference value: 0.773%); type: functional
HCT-116 = test: Induction of apoptosis in human HCT116 cells assessed as viable cells at 100 nM measured after 48 hrs by Annexin V-FITC/propidium iodide staining-based flow cytometry (reference value: 94.5%); type: functional; details: HCT-116, 48 h, read-out: Activity
[18] = biological target: cAMP-dependent protein kinase catalytic subunit alpha (Homo sapiens) (UniProt P17612); test: Inhibition of recombinant full-length human PKA assessed as residual activity at 10 uM using Kemptide as substrate measured after 40 mins in presence of [gamma33P]ATP by scintillation counting method
[19] = biological target: Ribosomal protein S6 kinase alpha-1 (Homo sapiens) (UniProt Q15418); test: Inhibition of recombinant full-length human Rsk1 assessed as residual activity at 10 uM using KKKNRTLSVA as substrate measured after 40 mins in presence of [gamma33P]ATP by scintillation counting method
[20] = biological target: Dual specificity mitogen-activated protein kinase kinase 2 (Homo sapiens) (UniProt P36507); test: Inhibition of recombinant full-length human MEK2 assessed as residual activity at 10 uM using MBP as substrate measured after 40 mins in presence of [gamma33P]ATP by scintillation counting method
Mus musculus = species on record: Mus musculus; test: Inhibition of recombinant mouse ARG M982V/A562 mutant (27 to end residues) assessed as residual activity at 10 uM using EAIYAAPFAKKK as substrate measured after 40 mins in presence of [gamma33P]ATP by scintillation counting method
[21] = biological target: Ephrin type-B receptor 3 (Homo sapiens) (UniProt P54753); test: Inhibition of recombinant human EphB3 (599 to 920 residues) assessed as residual activity at 10 uM using poly (Glu, Tyr) 4:1 as substrate measured after 40 mins in presence of [gamma33P]ATP by scintillation counting method
[22] = test system: RAF proto-oncogene serine/threonine-protein kinase (Homo sapiens), P04049 [Y340D,Y341D]; test: Inhibition of recombinant human c-RAF Y340D/Y341D mutant (360 to end residues) assessed as residual activity at 10 uM using inactive MEK1 as substrate measured after 40 mins in presence of [gamma33P]ATP by scintillation counting method

Ephrin type-B receptor 3 (Homo sapiens), sequence (P54753 whole entry, the tested form may be a part): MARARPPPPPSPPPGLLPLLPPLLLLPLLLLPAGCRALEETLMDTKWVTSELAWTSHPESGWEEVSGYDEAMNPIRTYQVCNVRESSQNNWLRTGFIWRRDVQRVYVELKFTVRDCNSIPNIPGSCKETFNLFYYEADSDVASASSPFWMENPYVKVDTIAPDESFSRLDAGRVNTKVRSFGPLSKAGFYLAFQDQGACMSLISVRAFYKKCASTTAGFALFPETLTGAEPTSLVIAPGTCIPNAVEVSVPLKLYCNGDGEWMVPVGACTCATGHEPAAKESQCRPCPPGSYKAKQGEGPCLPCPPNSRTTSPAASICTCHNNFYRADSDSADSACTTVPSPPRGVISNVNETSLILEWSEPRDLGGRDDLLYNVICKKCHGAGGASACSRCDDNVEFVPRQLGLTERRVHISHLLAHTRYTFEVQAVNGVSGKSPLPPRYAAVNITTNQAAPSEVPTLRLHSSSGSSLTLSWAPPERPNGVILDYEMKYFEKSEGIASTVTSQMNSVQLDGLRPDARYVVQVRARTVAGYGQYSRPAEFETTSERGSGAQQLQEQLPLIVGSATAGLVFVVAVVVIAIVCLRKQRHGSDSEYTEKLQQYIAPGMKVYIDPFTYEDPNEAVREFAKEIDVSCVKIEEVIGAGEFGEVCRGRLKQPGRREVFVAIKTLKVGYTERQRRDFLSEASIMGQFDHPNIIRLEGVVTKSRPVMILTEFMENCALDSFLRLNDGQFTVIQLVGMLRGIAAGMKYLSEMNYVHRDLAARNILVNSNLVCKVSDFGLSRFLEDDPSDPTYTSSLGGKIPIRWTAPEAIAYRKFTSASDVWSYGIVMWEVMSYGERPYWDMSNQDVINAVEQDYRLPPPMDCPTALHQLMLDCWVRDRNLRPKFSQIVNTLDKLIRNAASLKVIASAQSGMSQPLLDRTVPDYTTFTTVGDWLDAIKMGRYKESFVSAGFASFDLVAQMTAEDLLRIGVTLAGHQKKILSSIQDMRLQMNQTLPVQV
Ribosomal protein S6 kinase alpha-1 (Homo sapiens), sequence (Q15418 whole entry): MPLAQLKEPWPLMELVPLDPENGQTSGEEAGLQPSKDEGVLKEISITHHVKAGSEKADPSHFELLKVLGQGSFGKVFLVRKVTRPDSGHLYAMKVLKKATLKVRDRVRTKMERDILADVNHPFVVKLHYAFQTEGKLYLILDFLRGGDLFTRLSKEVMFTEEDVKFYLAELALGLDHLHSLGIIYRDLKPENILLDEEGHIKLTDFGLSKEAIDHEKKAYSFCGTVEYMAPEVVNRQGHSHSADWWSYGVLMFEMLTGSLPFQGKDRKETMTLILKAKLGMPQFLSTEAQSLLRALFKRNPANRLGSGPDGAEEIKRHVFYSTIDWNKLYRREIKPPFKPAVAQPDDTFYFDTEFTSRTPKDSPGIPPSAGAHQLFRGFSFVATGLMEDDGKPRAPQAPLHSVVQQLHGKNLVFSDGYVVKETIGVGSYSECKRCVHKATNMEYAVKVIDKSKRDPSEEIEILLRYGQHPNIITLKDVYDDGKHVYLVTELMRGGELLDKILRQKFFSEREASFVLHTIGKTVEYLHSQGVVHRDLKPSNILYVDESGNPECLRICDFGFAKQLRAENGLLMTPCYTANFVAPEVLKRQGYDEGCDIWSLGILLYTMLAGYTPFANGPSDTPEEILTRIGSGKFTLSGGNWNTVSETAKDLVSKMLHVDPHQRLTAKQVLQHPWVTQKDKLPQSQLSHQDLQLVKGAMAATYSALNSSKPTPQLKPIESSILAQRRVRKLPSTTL
Mitogen-activated protein kinase kinase kinase kinase 3 (Homo sapiens), sequence (Q8IVH8 whole entry, the tested form may be a part): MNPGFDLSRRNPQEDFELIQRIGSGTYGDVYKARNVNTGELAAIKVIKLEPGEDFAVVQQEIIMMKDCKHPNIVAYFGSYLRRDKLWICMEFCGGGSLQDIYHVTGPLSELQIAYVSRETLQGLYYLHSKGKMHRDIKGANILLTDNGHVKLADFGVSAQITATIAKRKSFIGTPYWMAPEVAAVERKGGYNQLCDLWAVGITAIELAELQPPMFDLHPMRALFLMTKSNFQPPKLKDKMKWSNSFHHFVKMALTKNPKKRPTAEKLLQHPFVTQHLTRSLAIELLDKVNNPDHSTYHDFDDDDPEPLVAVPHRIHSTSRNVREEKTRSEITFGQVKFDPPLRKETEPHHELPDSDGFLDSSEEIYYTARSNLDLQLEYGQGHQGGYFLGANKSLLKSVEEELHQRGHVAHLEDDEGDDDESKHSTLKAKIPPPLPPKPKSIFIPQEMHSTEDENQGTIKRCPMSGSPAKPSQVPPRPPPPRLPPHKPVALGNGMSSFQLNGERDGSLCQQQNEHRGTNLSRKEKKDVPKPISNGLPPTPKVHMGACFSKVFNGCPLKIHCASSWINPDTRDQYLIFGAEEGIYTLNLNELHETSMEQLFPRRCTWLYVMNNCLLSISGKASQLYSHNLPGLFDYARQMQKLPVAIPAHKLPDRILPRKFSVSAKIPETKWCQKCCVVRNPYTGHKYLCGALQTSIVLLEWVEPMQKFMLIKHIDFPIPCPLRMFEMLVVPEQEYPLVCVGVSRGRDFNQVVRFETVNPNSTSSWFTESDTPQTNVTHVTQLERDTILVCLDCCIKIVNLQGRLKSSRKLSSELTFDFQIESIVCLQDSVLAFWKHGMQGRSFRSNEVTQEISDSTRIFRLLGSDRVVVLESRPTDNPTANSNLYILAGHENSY
Serine/threonine-protein kinase PAK 5 (Homo sapiens), sequence (Q9P286 whole entry, looked up, the tested form may be a part, canonical isoform): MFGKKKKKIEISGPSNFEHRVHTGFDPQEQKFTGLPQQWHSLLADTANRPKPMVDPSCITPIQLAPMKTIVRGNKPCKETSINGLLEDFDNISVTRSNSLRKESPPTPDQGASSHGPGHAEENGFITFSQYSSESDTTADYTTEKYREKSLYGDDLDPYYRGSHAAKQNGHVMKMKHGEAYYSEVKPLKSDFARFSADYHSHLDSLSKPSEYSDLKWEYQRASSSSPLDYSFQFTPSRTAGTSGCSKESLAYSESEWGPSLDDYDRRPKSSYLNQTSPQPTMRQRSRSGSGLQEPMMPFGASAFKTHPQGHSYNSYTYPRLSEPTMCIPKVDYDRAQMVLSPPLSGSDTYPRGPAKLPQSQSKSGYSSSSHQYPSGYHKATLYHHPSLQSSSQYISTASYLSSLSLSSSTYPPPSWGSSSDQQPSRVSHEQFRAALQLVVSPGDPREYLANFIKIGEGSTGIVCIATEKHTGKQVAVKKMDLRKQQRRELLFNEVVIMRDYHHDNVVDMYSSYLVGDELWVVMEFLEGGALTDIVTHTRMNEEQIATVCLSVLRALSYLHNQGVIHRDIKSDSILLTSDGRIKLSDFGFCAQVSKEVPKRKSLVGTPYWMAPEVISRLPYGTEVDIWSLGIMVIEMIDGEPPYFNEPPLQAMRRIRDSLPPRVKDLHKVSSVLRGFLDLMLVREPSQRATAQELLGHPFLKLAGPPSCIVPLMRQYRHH
Casein kinase I isoform delta (Homo sapiens), sequence (P48730 whole entry, looked up, the tested form may be a part, canonical isoform): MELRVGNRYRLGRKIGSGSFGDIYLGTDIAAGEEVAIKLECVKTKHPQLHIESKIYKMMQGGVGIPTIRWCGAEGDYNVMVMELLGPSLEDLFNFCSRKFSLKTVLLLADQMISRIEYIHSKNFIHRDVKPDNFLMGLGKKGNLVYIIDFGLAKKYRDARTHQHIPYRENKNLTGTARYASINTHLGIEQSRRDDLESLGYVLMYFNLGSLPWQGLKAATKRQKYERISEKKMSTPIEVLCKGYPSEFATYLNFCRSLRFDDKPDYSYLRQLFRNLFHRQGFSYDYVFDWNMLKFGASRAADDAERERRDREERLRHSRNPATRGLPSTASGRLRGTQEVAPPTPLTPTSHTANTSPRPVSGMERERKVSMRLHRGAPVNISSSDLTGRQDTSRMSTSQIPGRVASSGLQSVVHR
Tyrosine-protein kinase Srms (Homo sapiens), sequence (Q9H3Y6 whole entry): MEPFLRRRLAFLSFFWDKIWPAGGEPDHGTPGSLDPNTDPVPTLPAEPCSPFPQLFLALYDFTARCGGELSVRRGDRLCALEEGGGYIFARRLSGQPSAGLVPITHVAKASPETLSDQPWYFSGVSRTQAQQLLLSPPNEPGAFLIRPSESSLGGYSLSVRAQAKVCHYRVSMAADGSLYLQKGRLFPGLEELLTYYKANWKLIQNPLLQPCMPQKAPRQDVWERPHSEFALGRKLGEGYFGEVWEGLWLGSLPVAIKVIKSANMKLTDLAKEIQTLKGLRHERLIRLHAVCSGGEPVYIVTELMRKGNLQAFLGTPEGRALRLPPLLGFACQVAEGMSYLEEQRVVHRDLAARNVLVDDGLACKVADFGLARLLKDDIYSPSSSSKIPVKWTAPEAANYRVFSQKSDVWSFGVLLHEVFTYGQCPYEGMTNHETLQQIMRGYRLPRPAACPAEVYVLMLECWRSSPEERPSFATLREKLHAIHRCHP
Mitogen-activated protein kinase 1 (Homo sapiens), sequence (P28482 whole entry): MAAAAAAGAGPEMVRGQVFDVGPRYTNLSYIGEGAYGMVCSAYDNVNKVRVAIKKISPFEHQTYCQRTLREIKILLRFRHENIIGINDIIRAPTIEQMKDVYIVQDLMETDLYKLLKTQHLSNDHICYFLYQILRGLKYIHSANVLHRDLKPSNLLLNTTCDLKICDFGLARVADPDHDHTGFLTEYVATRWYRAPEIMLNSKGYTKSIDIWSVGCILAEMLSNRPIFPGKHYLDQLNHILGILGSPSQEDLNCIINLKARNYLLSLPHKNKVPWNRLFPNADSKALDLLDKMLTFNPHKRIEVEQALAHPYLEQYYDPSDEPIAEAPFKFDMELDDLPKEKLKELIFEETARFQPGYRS
Death-associated protein kinase 2 (Homo sapiens), sequence (Q9UIK4 whole entry, looked up): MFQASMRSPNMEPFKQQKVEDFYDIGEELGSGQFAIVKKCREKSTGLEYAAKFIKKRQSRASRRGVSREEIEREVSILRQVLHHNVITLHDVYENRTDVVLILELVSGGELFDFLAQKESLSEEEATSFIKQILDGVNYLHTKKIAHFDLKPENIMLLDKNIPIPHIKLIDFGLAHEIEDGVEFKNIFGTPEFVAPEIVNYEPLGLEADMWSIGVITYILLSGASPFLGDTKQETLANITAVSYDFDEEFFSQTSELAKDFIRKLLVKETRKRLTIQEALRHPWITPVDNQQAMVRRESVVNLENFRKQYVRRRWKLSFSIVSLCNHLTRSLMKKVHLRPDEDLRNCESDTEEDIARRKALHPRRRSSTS

Cc1cc(C)c(CNc2nc(Cl)nc3c2ncn3C2CCCC2)c(=O)[nH]1
Activity [1]: 101%
Activity [2]: 101%
Activity [3]: 143%
Activity [4]: 106%
Activity [5]: 104%
Activity [6]: 108%
Activity [7]: 97.5%
Activity [8]: 110%
Activity [9]: 103%
Activity [10]: Non-Toxic
Activity [11]: Non-Toxic
Activity [12]: 97.5%
Activity (Homo sapiens): 106%
Activity [13]: 97%
Activity [14]: 104%
Activity [15]: 97%
Activity (SW-620 [16]): Dose-dependent effect
Activity (SW-620 [17]): 1.22%
viability at 0.1 µM (HCT-116): 39%
Activity [18]: 91%
Activity [19]: 112%
Activity [20]: 109%
Activity (Mus musculus): 106%
Activity [21]: 110%
Activity [22]: 96.5%
